Data on 7 molecules can be found in ChEMBL document CHEMBL1201862, “PubChem BioAssay data set” (2004).

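Exposure lasted 48 hours, with cells grown in 96-well plates and compounds tested at five concentrations. Here, GI50 denotes the concentration required for 50% inhibition of growth.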 Calls of active or inactive are those of the source. Cut-off read from the data, not from the text of the source: active = GI50 up to about 1.1 µM and inactive = higher.

Among the test systems are OVCAR-3; SNB-75; NCI-H522; K562; Malme-3M; HL-60; NCI-H23; OVCAR-8; NCI-H460; U-251; CCRF-CEM; SF-295; RPMI-8226; UACC-62; 786-0; EKVX; SK-MEL-5; UACC-257; HT-29; IGROV-1.
What all share (test): NCI tumour cell line growth inhibition, 48 h

`C=C1CCC2[C@@H](CCC3[C@]2(C)CCC[C@]3(C)C(=O)OC)C1CCO` (stereo not given in full): the GI50 in the assay on OVCAR-3 was 12.6 µM (inactive); in the assay on SNB-75, 7.46 µM (inactive); in the assay with NCI-H522, 5.2 µM (inactive); in the assay on K562, 6 µM (inactive); in the assay on Malme-3M, 14.9 µM (inactive); in the assay on HL-60, 4.02 µM (inactive). The GI50 in the assay on NCI-H23 is 9.35 µM (inactive); in the assay with OVCAR-8 it was 18.8 µM (inactive); in the assay with NCI-H460, 6.49 µM (inactive); in the assay with U-251 it was 11.1 µM (inactive); with CCRF-CEM, 10.5 µM (inactive); in the assay on SF-295, 16.3 µM (inactive). In addition, the GI50 is 3.12 µM (inactive) in the assay on RPMI-8226; 11.2 µM (inactive) with UACC-62; 18.3 µM (inactive) in the assay with 786-0; 20.5 µM (inactive) in the assay with EKVX; 4.53 µM (inactive) in the assay on SK-MEL-5; 5.98 µM (inactive) in the assay with UACC-257. For the same molecule, the GI50 in the assay on HT-29 is 4.37 µM (inactive); in the assay with IGROV-1 it was 13.6 µM (inactive).
Take `COC(=O)Cc1c([C@H]2[C@H](CC(=O)OC)c3ccccc3N2C(=O)C(F)(F)F)[nH]c2ccccc12`: the GI50 is 15.9 µM (inactive) in the assay with OVCAR-3; 29.2 µM (inactive) in the assay on SNB-75; 12 µM (inactive) with NCI-H522; 11.1 µM (inactive) with K562; 29.9 µM (inactive) in the assay on Malme-3M; 40.3 µM (inactive) with HL-60. Further, the GI50 in the assay with NCI-H23 was 25.2 µM (inactive); in the assay with OVCAR-8, 32.5 µM (inactive); in the assay on NCI-H460 it was 22.4 µM (inactive); in the assay with U-251, 13.6 µM (inactive); in the assay with CCRF-CEM, 14.6 µM (inactive); in the assay with SF-295 it was 18.1 µM (inactive). Besides, the GI50 with RPMI-8226 is 17.7 µM (inactive); with UACC-62, 13.6 µM (inactive); with 786-0, > 100 µM (inactive); in the assay with EKVX it was 26.8 µM (inactive); in the assay on SK-MEL-5, 11.6 µM (inactive); in the assay on UACC-257 it was 29.1 µM (inactive). The GI50 in the assay on HT-29 was 29.3 µM (inactive); in the assay on IGROV-1, 2.83 µM (inactive).
Turning to `COc1c2c(nc3ccccc13)-c1cc3c(c(=O)n1C2)COC(=O)C3(O)CC(=O)N1CCOCC1` (stereo not given), the GI50 is 19.4 µM (inactive) in the assay on OVCAR-3; 1.35 µM (inactive) in the assay with SNB-75; 1.9 µM (inactive) in the assay with NCI-H522; 4.85 µM (inactive) in the assay on K562; 16.3 µM (inactive) in the assay on Malme-3M; 2.72 µM (inactive) with HL-60. Moreover, the GI50 in the assay on NCI-H23 was 1.75 µM (inactive); with OVCAR-8, 3.58 µM (inactive); in the assay with NCI-H460, 1.17 µM (inactive); with U-251, 0.528 µM (active); in the assay on CCRF-CEM, 0.164 µM (active); in the assay on SF-295, 3.59 µM (inactive). Besides, the GI50 was 6.43 µM (inactive) with RPMI-8226; 0.76 µM (active) with UACC-62; 2.07 µM (inactive) with 786-0; 43.2 µM (inactive) in the assay on EKVX; 4.09 µM (inactive) in the assay with SK-MEL-5; 19 µM (inactive) in the assay on UACC-257. The GI50 is 17.3 µM (inactive) in the assay on HT-29 and 44.1 µM (inactive) in the assay on IGROV-1.
Turning to `CC(C)(CN1CCCCC1)C(=O)/C=C/c1c(Cl)cccc1Cl`, the GI50 with OVCAR-3 is 0.955 µM (active); with SNB-75, 0.735 µM (active); in the assay on NCI-H522, 0.124 µM (active); with K562 it was 0.736 µM (active); with Malme-3M, 0.489 µM (active); in the assay with HL-60, 1.61 µM (inactive). In addition, the GI50 was 1.35 µM (inactive) with NCI-H23; 2.18 µM (inactive) in the assay on OVCAR-8; 1.61 µM (inactive) in the assay with NCI-H460; 1.38 µM (inactive) in the assay with U-251; 0.52 µM (active) with CCRF-CEM; 2.64 µM (inactive) in the assay on SF-295. The GI50 with RPMI-8226 is 3.89 µM (inactive); in the assay on UACC-62, 1.29 µM (inactive); in the assay on 786-0, 1.31 µM (inactive); in the assay with EKVX, 0.834 µM (active); in the assay on SK-MEL-5 it was 1.42 µM (inactive); in the assay with UACC-257, 2 µM (inactive). Further, the GI50 was 1.38 µM (inactive) in the assay with HT-29 and 0.192 µM (active) in the assay with IGROV-1.
`COc1ccc(-c2csc3c2[N+]2(C)C=CC=C2C3N2CCCC2)cc1` (stereo not given): the GI50 in the assay on OVCAR-3 was 13.3 µM (inactive); in the assay on SNB-75 it was 4.12 µM (inactive); in the assay with NCI-H522, 2.43 µM (inactive); in the assay with K562 it was 6.61 µM (inactive); with Malme-3M, 12.2 µM (inactive); in the assay on HL-60 it was 3.61 µM (inactive). Besides, the GI50 in the assay on NCI-H23 was 10.6 µM (inactive); in the assay on OVCAR-8 it was 17.5 µM (inactive); in the assay with NCI-H460, 16.1 µM (inactive); with U-251 it was 7.01 µM (inactive); in the assay with CCRF-CEM it was 28.3 µM (inactive); in the assay on SF-295, 10.6 µM (inactive). Besides, the GI50 is 8.34 µM (inactive) with RPMI-8226; 15.5 µM (inactive) with UACC-62; 41.6 µM (inactive) in the assay with 786-0; 20.5 µM (inactive) in the assay on EKVX; 8.59 µM (inactive) in the assay on SK-MEL-5; 7.4 µM (inactive) with UACC-257. The GI50 in the assay with HT-29 is 16.9 µM (inactive); in the assay with IGROV-1, 11.2 µM (inactive).
On to `CCOc1ccc(NC(=O)C(=O)CC(=O)c2c(C)[n+]([O-])c3ccccc3[n+]2[O-])cc1`, for which the GI50 in the assay on OVCAR-3, in the assay with SNB-75, in the assay with NCI-H522, in the assay on K562, in the assay on Malme-3M and with HL-60 was > 100 µM (inactive) each time. For the same molecule, the GI50 with NCI-H23, in the assay on OVCAR-8, in the assay with NCI-H460, in the assay with U-251, with CCRF-CEM and in the assay on SF-295 was > 100 µM (inactive) in each case. Besides, the GI50 in the assay on RPMI-8226, with UACC-62, in the assay on 786-0, with EKVX, in the assay on SK-MEL-5 and in the assay with UACC-257 was > 100 µM (inactive) throughout. Besides, the GI50 in the assay with HT-29 and in the assay with IGROV-1 was > 100 µM (inactive) throughout.
Take `N#CC1(c2nc3ccccc3o2)C(=O)C(=O)N(C2C3CC4CC(C3)CC2C4)C(=O)C1=O` (stereo not given): the GI50 with OVCAR-3 was > 100 µM (inactive); in the assay on SNB-75, > 100 µM (inactive); in the assay with NCI-H522 it was > 100 µM (inactive); with K562, > 100 µM (inactive); in the assay on Malme-3M it was > 100 µM (inactive); with HL-60, 42 µM (inactive). The GI50 is > 100 µM (inactive) in the assay with NCI-H23; > 100 µM (inactive) in the assay on OVCAR-8; > 100 µM (inactive) with NCI-H460; > 100 µM (inactive) with U-251; 64.9 µM (inactive) in the assay on CCRF-CEM; > 100 µM (inactive) in the assay with SF-295. Besides, the GI50 with RPMI-8226 was 26.4 µM (inactive); in the assay on UACC-62, > 100 µM (inactive); in the assay with 786-0, > 100 µM (inactive); in the assay with EKVX, > 100 µM (inactive); in the assay with SK-MEL-5, > 100 µM (inactive); in the assay with UACC-257, > 100 µM (inactive). Further, the GI50 in the assay with HT-29 and in the assay on IGROV-1 was > 100 µM (inactive) each time.
